Data published in PMC8942775, “Lipidated Calcitonin Gene-Related Peptide (CGRP) Peptide Antagonists Retain CGRP Receptor Activity and Attenuate CGRP Action In Vivo” (Frontiers in Pharmacology, 2022).
Ends that are not written are not given here. Peptide text beside a SMILES is read from it. * marks the point of attachment. Ethyl(2-palmitoyloxy) = CCCCCCCCCCCCCCCC(=O)OCC*

Key:
[1] = system: endogenous CGRP action (capsaicin-induced dermal vasodilation); assay: Capsaicin-induced dermal vasodilation (CIDV), laser Doppler imaging of the mouse ear; format: in vivo, C57BL/6J mice; conditions: for effect on CIDV response (antagonist screening): male and female C57BL/6J mice, single s.c. dose 10 min before anesthesia, αCGRP8-37 960 nmol/kg, olcegepant 1150 nmol/kg, K24C-palmitate 320 nmol/kg, capsaicin 60 μg/ear, flux AUC over 15 min vs saline, four to five mice per group; for effect on CIDV response at lower (mass-matched) dose: s.c., flux AUC over 15 min vs matched vehicle group, compared to V8C-palmitate and K24C-palmitate, 4-7 per group
Description: (§1) Experimental design is outlined in Figure 1. Male and female C57BL/6J mice were recruited at 10–12 weeks of age at 20–30 g bodyweight. Animals were randomly allocated to each treatment group. Antagonists were diluted from respective stock solutions into 37°C pre-warmed sterile 0.9% saline containing 0.1% BSA and DMSO at a final amount of 3.2%. The vehicle was 0.9% saline supplemented with 0.1% BSA and 3.2% DMSO. Antagonist or vehicle was administered subcutaneously at a volume of 10 ml/kg. The anesthetic was: ketamine at 10 mg/ml and xylazine at 1 mg/ml, dissolved in sterile 0.9% saline. This was administered via the intraperitoneal route at 10 ml/kg and the anesthetized mouse placed onto a heating pad to maintain constant body temperature. The head was positioned for the dorsal region of both ears to be aligned to the LDI2-HIR Laser Doppler Imager (Moor Instruments) above it. The imager scanned 40 cm from the ear at a scan speed of 4 ms/pixel, with a scan area of approximately 11.0 cm × 4.1 cm and 256 × 45 pixels resolution. This provided a scan rate of approximately 1 scan/min for both ears. Both ears were simultaneously scanned for 3 min to generate the baseline blood flow prior to capsaicin-challenge (Figure 1). Guided by earlier research ([Grant et al., 2002]), capsaicin (Sigma-Aldrich, St. Louis, MO, United States) dissolved in absolute ethanol was applied topically to the ear (60 μg/ear; 10 μl on both dorsal and ventral side). On the contralateral ear, ethanol was applied as a negative control. Both ears were then immediately scanned with the Laser Doppler imager for a continuous 15-min period to capture changes in blood flow (Figure 1).
Mice were administered subcutaneously with vehicle or antagonist (Figure 1A). Ten minutes later mice were anesthetized and placed on a heating pad. Ten minutes after anesthesia induction, measurement of dermal blood-flow commenced. Either a single dose of antagonist as specified in the figures was used or a dose-ranging study was conducted. For the dose-ranging study, either hαCGRP8-37 or hαCGRP8-37 V8C-palmitate (V8C-palmitate) at a dose of 320, 960 or 3,200 nmol/kg was used. Doses were selected based on existing literature and our own pilot trials to characterize optimal (and maximal/minimal) effective dose within the bounds of solubility limits ([Saxen et al., 1994]; [Grant et al., 2002]; [Gohin et al., 2015]; [Aubdool et al., 2016]).
Mice were administered subcutaneously with vehicle or either hαCGRP8-37 (960 nmol/kg) or V8C-palmitate (960 nmol/kg) at 10, 20, 30 or 60 min prior to anesthesia and baseline read (Figure 1A). Ten minutes after anesthesia induction, measurement of dermal blood-flow began. To study the time of onset of antagonist activity, a shorter period between treatment administration and capsaicin challenge was utilized (T0) (Figure 1B). Here, mice were anesthetized and placed on the heating pad prior to peptide administration. Immediately after peptide administration, measurement of dermal blood-flow began.
For laser doppler imaging (LDI) scans, mean flux values of the whole scanned ear region for both ethanol (control) and capsaicin-treated ears at each time point (per minute) were analyzed using the MoorLDI Review 6.1 software. Mean flux values were normalized to the mean flux values averaged from the three continuous baseline scans and a time course is generated. Area under the curve (AUC) of the % flux mean after capsaicin application (t ≥ 0) was measured for each animal, grouped and compared between different ears or treatment arms. […] Time courses and time points were compared using repeated measures two-way ANOVA with Bonferonni’s multiple comparisons test.

[2] = Solubility limit of the dosing solution; format: physicochemical; conditions: dosing vehicle 0.9% saline with 0.1% BSA and 3.2% DMSO; limited the maximum dose to 320 nmol/kg (10 ml/kg)
Description: as §1, with “Guided by earlier research ([Grant et al., 2002]), capsaicin (Sigma-Aldrich, St. Louis, MO, United States) dissolved in absolute ethanol was applied topically to the ear (60 μg/ear; 10 μl on both dorsal and ventral side). On the contralateral ear, ethanol was applied as a negative control. Both ears were then immediately scanned with the Laser Doppler imager for a continuous 15-min period to capture changes in blood flow (Figure 1).” left out

[3] = target: T1, human CGRP receptor (CLR:RAMP1) (Homo sapiens, UniProt O60894+Q16602); assay: cAMP assay, antagonism of αCGRP at the human CGRP receptor in transfected Cos-7 cells; format: cell-based; conditions: for pA2, CGRPr: non-lipidated analogues, single antagonist concentration 30 nM, agonist αCGRP, mean ± SEM of three independent experiments, SEM; for fold less potent compared to αCGRP8-37 at the CGRP receptor: from pA2 values at 30 nM
T1 construct: HA; myc; expressed in transfected cells; host or cells: Cos-7
Description: (§2) Data were analyzed using GraphPad Prism versions 7–9 (GraphPad Software Inc., San Diego, CA, Unite States). Concentration-response cAMP data were fitted via non-linear regression using a four-parameter logistic equation. An extra sum-of-squares F-test was conducted to determine whether the Hill slope was equal to one. […] The maximal (Emax) and minimal (Emin) responses were not constrained between independent experiments to obtain the pEC50 value.
(§3) The Schild slope was also constrained to one.

[4] = target: T2, human AMY1 receptor (CTR/RAMP1) (Homo sapiens, UniProt O60894+P30988); assay: cAMP assay, antagonism of αCGRP at the human AMY1 receptor in transfected Cos-7 cells; format: cell-based; conditions: for pA2, AMY1r: non-lipidated analogues, single antagonist concentration 30 nM, agonist αCGRP, mean ± SEM of three independent experiments, SEM
T2 construct: HA; myc; expressed in transfected cells; host or cells: Cos-7
Description: as §2, §3

T2 sequence (P30988 25-474): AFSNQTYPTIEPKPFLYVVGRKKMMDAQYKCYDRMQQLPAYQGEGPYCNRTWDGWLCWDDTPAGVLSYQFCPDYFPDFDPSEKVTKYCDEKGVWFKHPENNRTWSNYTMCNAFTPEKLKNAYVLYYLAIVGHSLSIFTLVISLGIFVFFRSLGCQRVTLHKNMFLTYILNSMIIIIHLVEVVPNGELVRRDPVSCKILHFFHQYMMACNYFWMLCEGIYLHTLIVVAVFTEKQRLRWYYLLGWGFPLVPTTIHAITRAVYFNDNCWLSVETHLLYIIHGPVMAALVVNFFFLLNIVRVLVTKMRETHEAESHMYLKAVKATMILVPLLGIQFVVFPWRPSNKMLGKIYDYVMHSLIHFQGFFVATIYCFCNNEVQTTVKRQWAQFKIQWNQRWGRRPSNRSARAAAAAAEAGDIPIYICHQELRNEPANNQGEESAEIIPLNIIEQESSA
T2 sequence (O60894 27-148): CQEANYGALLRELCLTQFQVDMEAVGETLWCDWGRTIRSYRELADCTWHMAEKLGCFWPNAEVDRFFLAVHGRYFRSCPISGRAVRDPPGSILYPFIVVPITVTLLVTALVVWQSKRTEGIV
T1 sequence (Q16602 23-461): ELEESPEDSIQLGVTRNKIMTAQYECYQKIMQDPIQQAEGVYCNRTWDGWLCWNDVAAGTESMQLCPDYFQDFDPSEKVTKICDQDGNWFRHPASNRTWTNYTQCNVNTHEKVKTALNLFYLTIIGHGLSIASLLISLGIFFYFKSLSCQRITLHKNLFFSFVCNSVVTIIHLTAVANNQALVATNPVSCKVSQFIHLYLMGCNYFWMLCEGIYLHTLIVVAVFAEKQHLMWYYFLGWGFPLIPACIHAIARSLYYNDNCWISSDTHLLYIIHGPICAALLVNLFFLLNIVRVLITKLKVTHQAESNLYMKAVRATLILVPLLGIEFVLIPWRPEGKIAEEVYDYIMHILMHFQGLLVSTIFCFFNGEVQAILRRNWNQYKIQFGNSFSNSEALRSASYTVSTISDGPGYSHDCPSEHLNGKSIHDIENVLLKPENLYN
T1 sequence (O60894 27-148): as the sequence (O60894 27-148) above

CCCCCCCCCCCCCCCC(=O)OCCSC[C@H](NC(=O)[C@@H](NC(=O)[C@@H](NC(=O)CNC(=O)CNC(=O)[C@H](CO)NC(=O)[C@H](CCCNC(=N)N)NC(=O)[C@H](CO)NC(=O)[C@H](CC(C)C)NC(=O)[C@H](CC(C)C)NC(=O)CNC(=O)[C@H](C)NC(=O)[C@H](CC(C)C)NC(=O)[C@H](CCCNC(=N)N)NC(=O)[C@H](Cc1c[nH]cn1)NC(=O)[C@@H](NC(=O)[C@@H](N)C(C)C)[C@@H](C)O)C(C)C)C(C)C)C(=O)N[C@@H](CC(N)=O)C(=O)N[C@@H](CC(N)=O)C(=O)N[C@@H](Cc1ccccc1)C(=O)N[C@H](C(=O)N1CCC[C@H]1C(=O)N[C@H](C(=O)N[C@@H](CC(N)=O)C(=O)N[C@H](C(=O)NCC(=O)N[C@@H](CO)C(=O)N[C@@H](CCCCN)C(=O)N[C@@H](C)C(=O)N[C@@H](Cc1ccccc1)C(N)=O)C(C)C)[C@@H](C)O)C(C)C [K24C-palmitate] (H-VTHRLAGLLSRSGGVVC(Ethyl(2-palmitoyloxy))NNFVPTNVGSKAF-NH2; N-terminus assumed)
effect on CIDV response (antagonist screening) [1]: attenuated the CIDV response
solubility [2]: limited solubility at high concentrations

CCCCCCCCCCCCCCCC(=O)OCCSC[C@H](NC(=O)[C@H](CO)NC(=O)CNC(=O)[C@@H](NC(=O)[C@H](CC(N)=O)NC(=O)[C@@H](NC(=O)[C@@H]1CCCN1C(=O)[C@@H](NC(=O)[C@H](Cc1ccccc1)NC(=O)[C@H](CC(N)=O)NC(=O)[C@H](CC(N)=O)NC(=O)[C@H](CCCCN)NC(=O)[C@@H](NC(=O)[C@@H](NC(=O)CNC(=O)CNC(=O)[C@H](CO)NC(=O)[C@H](CCCNC(=N)N)NC(=O)[C@H](CO)NC(=O)[C@H](CC(C)C)NC(=O)[C@H](CC(C)C)NC(=O)CNC(=O)[C@H](C)NC(=O)[C@H](CC(C)C)NC(=O)[C@H](CCCNC(=N)N)NC(=O)[C@H](Cc1c[nH]cn1)NC(=O)[C@@H](NC(=O)[C@@H](N)C(C)C)[C@@H](C)O)C(C)C)C(C)C)C(C)C)[C@@H](C)O)C(C)C)C(=O)N[C@@H](C)C(=O)N[C@@H](Cc1ccccc1)C(N)=O [K35C-palmitate]
fold reduction of antagonist activity compared to hαCGRP8-37 at CGRP receptor ([3]; from pKB values): ~70 fold
fold reduction of antagonist activity compared to hαCGRP8-37 at AMY1 receptor ([4]; from pKB values): ~12 fold

CCCCCCCCCCCCCCCC(=O)OCCSC[C@H](N)C(=O)N[C@H](C(=O)N[C@@H](Cc1c[nH]cn1)C(=O)N[C@@H](CCCNC(=N)N)C(=O)N[C@@H](CC(C)C)C(=O)N[C@@H](C)C(=O)NCC(=O)N[C@@H](CC(C)C)C(=O)N[C@@H](CC(C)C)C(=O)N[C@@H](CO)C(=O)N[C@@H](CCCNC(=N)N)C(=O)N[C@@H](CO)C(=O)NCC(=O)NCC(=O)N[C@H](C(=O)N[C@H](C(=O)N[C@@H](CCCCN)C(=O)N[C@@H](CC(N)=O)C(=O)N[C@@H](CC(N)=O)C(=O)N[C@@H](Cc1ccccc1)C(=O)N[C@H](C(=O)N1CCC[C@H]1C(=O)N[C@H](C(=O)N[C@@H](CC(N)=O)C(=O)N[C@H](C(=O)NCC(=O)N[C@@H](CO)C(=O)N[C@@H](CCCCN)C(=O)N[C@@H](C)C(=O)N[C@@H](Cc1ccccc1)C(N)=O)C(C)C)[C@@H](C)O)C(C)C)C(C)C)C(C)C)[C@@H](C)O [V8C-palmitate]
effect on CIDV response (antagonist screening) [1]: attenuated the CIDV response
effect on CIDV, dose ranging, 320 nmol/kg ([1]; male mice, 320 nmol/kg s.c. 10 min before anesthesia, six mice per group): did not have a significant antagonist effect
effect on CIDV, dose ranging, 960 nmol/kg ([1]; male mice, 960 nmol/kg s.c. 10 min before anesthesia, six mice per group): significantly reduced CIDV
effect on CIDV, dose-duration study, T-10 ([1]; male mice, 960 nmol/kg s.c. 10 min prior to anesthesia and capsaicin application, six mice per group): attenuation evident only at T-10
effect on CIDV, dose-duration study, T-60 ([1]; male mice, 960 nmol/kg s.c. 60 min prior to anesthesia and capsaicin application, six mice per group): disappearing by the T-60 timepoint
effect on CIDV, dose ranging, 3,200 nmol/kg ([1]; male mice, 3,200 nmol/kg s.c. 10 min before anesthesia, six mice per group): significant antagonist effect

NCCCC[C@H](NC(=O)[C@@H](Cc1cc(Br)c(O)c(Br)c1)NC(=O)N1CCC(N2Cc3ccccc3NC2=O)CC1)C(=O)N1CCN(c2ccncc2)CC1 [olcegepant, reference compound]
effect on CIDV response (antagonist screening) [1]: attenuated the CIDV response

CCCCCCCCCCCCCCCC(=O)OCCSC[C@H](N)C(=O)N[C@H](C(=O)N[C@H](C(=O)N[C@@H](Cc1c[nH]cn1)C(=O)N[C@@H](CCCNC(=N)N)C(=O)N[C@@H](CC(C)C)C(=O)N[C@@H](C)C(=O)NCC(=O)N[C@@H](CC(C)C)C(=O)N[C@@H](CC(C)C)C(=O)N[C@@H](CO)C(=O)N[C@@H](CCCNC(=N)N)C(=O)N[C@@H](CO)C(=O)NCC(=O)NCC(=O)N[C@H](C(=O)N[C@H](C(=O)N[C@@H](CCCCN)C(=O)N[C@@H](CC(N)=O)C(=O)N[C@@H](CC(N)=O)C(=O)N[C@@H](Cc1ccccc1)C(=O)N[C@H](C(=O)N1CCC[C@H]1C(=O)N[C@H](C(=O)N[C@@H](CC(N)=O)C(=O)N[C@H](C(=O)NCC(=O)N[C@@H](CO)C(=O)N[C@@H](CCCCN)C(=O)N[C@@H](C)C(=O)N[C@@H](Cc1ccccc1)C(N)=O)C(C)C)[C@@H](C)O)C(C)C)C(C)C)C(C)C)[C@@H](C)O)C(C)C [αCGRP7-37-palmitate]
effect on CIDV response at lower (mass-matched) dose ([1]; male mice): weaker antagonist activities

K24C αCGRP8-37: cysteine-substituted αCGRP8-37 analogue at Lys-24 (VTHRLAGLLSRSGGVVCNNFVPTNVGSKAF-NH2; ends and bridges not checked; UniProt P06881 90-119, looked up, variant K24C)
pA2, CGRPr [3]: 8.25 ± 0.11
pA2, AMY1r [4]: 7.06 ± 0.15

K35C αCGRP8-37: cysteine-substituted αCGRP8-37 analogue at Lys-35
pA2, CGRPr [3]: 8.85 ± 0.31
pA2, AMY1r [4]: 7.04 ± 0.18

V8C αCGRP8-37: cysteine-substituted αCGRP8-37 analogue at Val-8 (CTHRLAGLLSRSGGVVKNNFVPTNVGSKAF-NH2; ends and bridges not checked; UniProt P06881 90-119, looked up, variant V8C)
fold less potent compared to αCGRP8-37 at the CGRP receptor [3]: 25 fold
pA2, CGRPr [3]: 7.23 ± 0.07
pA2, AMY1r [4]: 6.41 ± 0.15

αCGRP7-37: truncated peptide antagonist which retains the native Cys-7 residue (CVTHRLAGLLSRSGGVVKNNFVPTNVGSKAF; ends and bridges not checked; UniProt P06881 89-119, looked up, fragment)
fold less potent compared to αCGRP8-37 at the CGRP receptor [3]: 4.5 fold
pA2, CGRPr [3]: 7.98 ± 0.09
pA2, AMY1r [4]: 7.10 ± 0.17

βCGRP8-37: human βCGRP fragment 8-37, synthesized in house
effect on CIDV response at lower (mass-matched) dose ([1]; male mice): weaker antagonist activities
